# pIC50: −log10 of the molar value.
# Tested on: 996289-038-R-J1-PDC spheroid viability
# Test: Anticancer human tumor 996289-038-R-J1-PDC patient-derived colon adenocarcinoma cell line growth inhibition [PI3K]
# Details: spheroids with HUVEC and MSC; for pIC50: curve of first compound; for viability, T/C: stronger effect = lower value
# From the text: Combinatorial screen of targeted agents with the PI3K inhibitors inavolisib, alpelisib, duvelisib, and copanlisib in multi-cell type tumor spheroids
# A high-throughput screen of multi-cell type tumor spheroids was designed to identify active combinations of targeted small molecules and PI3K pathway inhibitors. Complex spheroids include a stromal component modeled by human endothelial cells (HUVEC) and fibroblasts modeled by human mesenchymal stem cells (MSCs). The concentration ranges selected for each drug and investigational agent were based upon clinically achievable concentrations if the clinical Cmax of the agent was known.
# Compounds. The drugs and investigational agents: inavolisib (NSC800729), alpelisib (NSC765974), duvelisib (NSC772469), copanlisib (NSC816437), ipatasertib (NSC767898), afuresertib (NSC778305), talazoparib (NSC767125), sapanisertib (NSC764658), selumetinib (NSC741078), tovorafenib (DAY101, NSC766906), vemurafenib (NSC761431), ravoxertinib (NSC781343), sotorasib (NSC818433), MRTX1133 (NSC 836407), abemaciclib (NSC 768073), palbociclib (NSC758247), venetoclax (NSC 766270), SY5609 (NSC837396), enzalutamide (NSC755605), and darolutamide (NSC825331), were obtained from the National Cancer Institute (NCI) Developmental Therapeutics Program Chemical Repository. The FDA-approved anticancer drug set is available from the NCI Developmental Therapeutics Program. […] The stock solutions were prepared in dimethyl sulfoxide (DMSO, Sigma-Aldrich, St. Louis, MO, cat. D2650) at 800-fold the tested concentration and stored at -70 degrees C prior to their use. All drugs and investigational agents were tested over a range starting from a high concentration at or near the clinical Cmax and decreasing in half-log increments. If the clinical Cmax for an agent had not been determined, the highest concentration tested was 10 microM.
# Cell Culture. All cells were maintained in an incubator at 37 degrees C and 5% CO2 with 95% humidity. The PDC lines were cultured according to standard operating procedures established by the NCI PDMR (https://pdmr.cancer.gov/sops/default.htm). All PDCs were thawed and cultured in Matrigel-coated flasks prepared with a working solution of 1X Ham's F-12 nutrient mix, without supplementation (Invitrogen, Waltham, MA, cat. 11765054), 100 U/mL penicillin-streptomycin (Invitrogen, cat. 15140122), and 2.5% Matrigel (Corning Inc., Corning, NY, cat. 354248) for the first three passages. The 354836-022-R-J1-PDC, 475296-252-R-J1-PDC, and 997726-040-R-J2-PDC lines were cultured in 6A media, which includes advanced DMEM/F-12 (Thermo Fisher Scientific, cat. 12634028), 10 mM HEPES (Thermo Fisher Scientific, cat. 15630080), 1X GlutaMAX supplement (Thermo Fisher Scientific, cat. 35050061), 0.1 mg/mL primocin (InvivoGen, San Diego, CA, cat. ant-pm-2), 10% defined fetal bovine serum, heat inactivated (HyClone Laboratories Inc., Logan, UT, cat. SH30070.03HI), 50% L-WRN conditioned media (ATCC, cat. CRL-3276), 1.25 mM N-Acetyl-L-cysteine (Sigma-Aldrich, cat. A9165), 10 mM nicotinamide (Sigma-Aldrich, cat. N0636), 1X B-27 supplement (Thermo Fisher Scientific, cat. 17504044), 1X N-2 supplement (Thermo Fisher Scientific, cat. 17502048), and 10 microM Y-27632 dihydrochloride (Tocris Bioscience, Bristol, United Kingdom, cat. 1254). The 624824-186-R-J2-PDC line was cultured in 6C/Colon 1B media, which includes all 6A media components plus 50 ng/mL human EGF recombinant protein (Thermo Fisher Scientific, cat. PHG0311). […]
# [1] = second compound 0.0316 µM, first compound 0.0316 µM
# [2] = second compound 0.0316 µM, first compound 0.1 µM
# [3] = second compound 0.0316 µM, first compound 0.316 µM
# [4] = second compound 0.0316 µM, first compound 1 µM
# [5] = second compound 0.1 µM, first compound 0.0316 µM
# [6] = second compound 0.1 µM, first compound 0.1 µM
# [7] = second compound 0.1 µM, first compound 0.316 µM
# [8] = second compound 0.1 µM, first compound 1 µM
# [9] = second compound 0.316 µM, first compound 0.0316 µM
# [10] = second compound 0.316 µM, first compound 0.1 µM
# [11] = second compound 0.316 µM, first compound 0.316 µM
# [12] = second compound 0.316 µM, first compound 1 µM
# [13] = second compound 1 µM, first compound 0.0316 µM
# [14] = second compound 1 µM, first compound 0.1 µM
# [15] = second compound 1 µM, first compound 0.316 µM
# [16] = second compound 1 µM, first compound 1 µM
# 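Note: spheroids exposed to compounds for seven days before viability read.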
# 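Throughout, for viability, T/C: luminescence used as a proxy for viable cell amount; percent viability relative to DMSO vehicle control as 100%.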
smiles,measurement,setting,value
C#Cc1c(F)ccc2cc(O)cc(-c3ncc4c(N5CC6CCC(C5)N6)nc(OCC56CCCN5CC(F)C6)nc4c3F)c12 (centres undefined) + Cc1nc(NC(=O)N2CCCC2C(N)=O)sc1-c1ccnc(C(C)(C)C(F)(F)F)c1,pIC50,second compound 0.0316 µM,5.78
same,pIC50,second compound 0.1 µM,6.21
same,pIC50,second compound 0.316 µM,6.54
same,pIC50,second compound 1 µM,6.81
same,pIC50,second compound 3.16 µM,7.11
same,pIC50,second compound 10 µM,> 7.50
same,"viability, T/C",[1],80.9%
same,"viability, T/C",[2],77.1%
same,"viability, T/C",[3],66.6%
same,"viability, T/C",[4],53.9%
same,"viability, T/C","second compound 0.0316 µM, first compound 3.16 µM",45.4%
same,"viability, T/C","second compound 0.0316 µM, first compound 10 µM",40.2%
same,"viability, T/C",[5],94.4%
same,"viability, T/C",[6],78.5%
same,"viability, T/C",[7],55.6%
same,"viability, T/C",[8],45.1%
same,"viability, T/C","second compound 0.1 µM, first compound 3.16 µM",39.6%
same,"viability, T/C","second compound 0.1 µM, first compound 10 µM",33.4%
same,"viability, T/C",[9],72.9%
same,"viability, T/C",[10],55%
same,"viability, T/C",[11],50.8%
same,"viability, T/C",[12],40.1%
same,"viability, T/C","second compound 0.316 µM, first compound 3.16 µM",37.8%
same,"viability, T/C","second compound 0.316 µM, first compound 10 µM",27.8%
same,"viability, T/C",[13],65.5%
same,"viability, T/C",[14],54.8%
same,"viability, T/C",[15],42.6%
same,"viability, T/C",[16],33.2%
same,"viability, T/C","second compound 1 µM, first compound 3.16 µM",27.8%
same,"viability, T/C","second compound 1 µM, first compound 10 µM",23.4%
same,"viability, T/C","second compound 3.16 µM, first compound 0.0316 µM",64%
same,"viability, T/C","second compound 3.16 µM, first compound 0.1 µM",47.2%
same,"viability, T/C","second compound 3.16 µM, first compound 0.316 µM",30.5%
same,"viability, T/C","second compound 3.16 µM, first compound 1 µM",26.8%
same,"viability, T/C","second compound 3.16 µM, first compound 3.16 µM",23.3%
same,"viability, T/C","second compound 3.16 µM, first compound 10 µM",16.9%
same,"viability, T/C","second compound 10 µM, first compound 0.0316 µM",37.6%
same,"viability, T/C","second compound 10 µM, first compound 0.1 µM",35.6%
same,"viability, T/C","second compound 10 µM, first compound 0.316 µM",22.2%
same,"viability, T/C","second compound 10 µM, first compound 1 µM",16.7%
same,"viability, T/C","second compound 10 µM, first compound 3.16 µM",14.5%
same,"viability, T/C","second compound 10 µM, first compound 10 µM",6.74%
CCN1CCN(Cc2ccc(Nc3ncc(F)c(-c4cc(F)c5nc(C)n(C(C)C)c5c4)n3)nc2)CC1 + COc1c(OCCCN2CCOCC2)ccc2c3n(c(=NC(=O)c4cnc(N)nc4)nc12)CCN3,pIC50,second compound 0.00316 µM,< 6.00
same,pIC50,second compound 0.01 µM,< 6.00
same,pIC50,second compound 0.0316 µM,< 6.00
same,pIC50,second compound 0.1 µM,7.39
same,pIC50,second compound 0.316 µM,> 8.50
same,pIC50,second compound 1 µM,> 8.50
same,"viability, T/C","second compound 0.00316 µM, first compound 0.00316 µM",107%
same,"viability, T/C","second compound 0.00316 µM, first compound 0.01 µM",90.6%
same,"viability, T/C","second compound 0.00316 µM, first compound 0.0316 µM",92.6%
same,"viability, T/C","second compound 0.00316 µM, first compound 0.1 µM",97.2%
same,"viability, T/C","second compound 0.00316 µM, first compound 0.316 µM",82.9%
same,"viability, T/C","second compound 0.00316 µM, first compound 1 µM",75.8%
same,"viability, T/C","second compound 0.01 µM, first compound 0.00316 µM",105%
same,"viability, T/C","second compound 0.01 µM, first compound 0.01 µM",80.7%
same,"viability, T/C","second compound 0.01 µM, first compound 0.0316 µM",82.5%
same,"viability, T/C","second compound 0.01 µM, first compound 0.1 µM",82.7%
same,"viability, T/C","second compound 0.01 µM, first compound 0.316 µM",79.2%
same,"viability, T/C","second compound 0.01 µM, first compound 1 µM",67.6%
same,"viability, T/C","second compound 0.0316 µM, first compound 0.00316 µM",75.2%
same,"viability, T/C","second compound 0.0316 µM, first compound 0.01 µM",72.5%
same,"viability, T/C",[1],76%
same,"viability, T/C",[2],57.3%
same,"viability, T/C",[3],59.6%
same,"viability, T/C",[4],53.3%
same,"viability, T/C","second compound 0.1 µM, first compound 0.00316 µM",57.4%
same,"viability, T/C","second compound 0.1 µM, first compound 0.01 µM",52.1%
same,"viability, T/C",[5],50.2%
same,"viability, T/C",[6],47.3%
same,"viability, T/C",[7],43.7%
same,"viability, T/C",[8],35.2%
same,"viability, T/C","second compound 0.316 µM, first compound 0.00316 µM",46.5%
same,"viability, T/C","second compound 0.316 µM, first compound 0.01 µM",33.5%
same,"viability, T/C",[9],29.2%
same,"viability, T/C",[10],27.2%
same,"viability, T/C",[11],22.7%
same,"viability, T/C",[12],24.1%
same,"viability, T/C","second compound 1 µM, first compound 0.00316 µM",21.2%
same,"viability, T/C","second compound 1 µM, first compound 0.01 µM",15.1%
same,"viability, T/C",[13],18.4%
same,"viability, T/C",[14],15.5%
same,"viability, T/C",[15],17.6%
same,"viability, T/C",[16],19%
